Article PMC9873571, “Plant-specific features of respiratory supercomplex I + III2 from Vigna radiata” (Nature Plants, 2022)

Tests used:
[1] = target: T1, V. radiata complex I (CI), NADH dehydrogenase site (Vigna radiata, UniProt A0A1S3V7V2); test: NADH-cytochrome c oxidoreductase activity of purified SC I + III2; type: biochemical; conditions: 10 µM NADH, 100 µM decylubiquinone, 100 µM equine cyt c, pH 7.4
T1 construct: gene LOC106772405; native complex I, in purified supercomplex I + III2 (NADH) or in washed mitochondrial membranes (dNADH)
T1 sequence (A0A1S3V7V2 28-491): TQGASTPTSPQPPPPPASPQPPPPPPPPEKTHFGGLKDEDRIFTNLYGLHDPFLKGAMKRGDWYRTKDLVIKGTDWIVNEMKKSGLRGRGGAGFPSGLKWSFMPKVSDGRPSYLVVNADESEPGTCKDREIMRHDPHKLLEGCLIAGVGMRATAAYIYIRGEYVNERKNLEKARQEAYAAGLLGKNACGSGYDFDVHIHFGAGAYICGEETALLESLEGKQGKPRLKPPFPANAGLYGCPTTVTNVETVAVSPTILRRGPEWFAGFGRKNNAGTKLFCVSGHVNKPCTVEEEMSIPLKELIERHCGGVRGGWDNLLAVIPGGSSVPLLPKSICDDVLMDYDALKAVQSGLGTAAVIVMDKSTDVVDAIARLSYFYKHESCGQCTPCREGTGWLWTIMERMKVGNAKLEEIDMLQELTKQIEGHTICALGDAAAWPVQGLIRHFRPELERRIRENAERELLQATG
T1 sequence (A0A1S3TQ85 32-746 partner): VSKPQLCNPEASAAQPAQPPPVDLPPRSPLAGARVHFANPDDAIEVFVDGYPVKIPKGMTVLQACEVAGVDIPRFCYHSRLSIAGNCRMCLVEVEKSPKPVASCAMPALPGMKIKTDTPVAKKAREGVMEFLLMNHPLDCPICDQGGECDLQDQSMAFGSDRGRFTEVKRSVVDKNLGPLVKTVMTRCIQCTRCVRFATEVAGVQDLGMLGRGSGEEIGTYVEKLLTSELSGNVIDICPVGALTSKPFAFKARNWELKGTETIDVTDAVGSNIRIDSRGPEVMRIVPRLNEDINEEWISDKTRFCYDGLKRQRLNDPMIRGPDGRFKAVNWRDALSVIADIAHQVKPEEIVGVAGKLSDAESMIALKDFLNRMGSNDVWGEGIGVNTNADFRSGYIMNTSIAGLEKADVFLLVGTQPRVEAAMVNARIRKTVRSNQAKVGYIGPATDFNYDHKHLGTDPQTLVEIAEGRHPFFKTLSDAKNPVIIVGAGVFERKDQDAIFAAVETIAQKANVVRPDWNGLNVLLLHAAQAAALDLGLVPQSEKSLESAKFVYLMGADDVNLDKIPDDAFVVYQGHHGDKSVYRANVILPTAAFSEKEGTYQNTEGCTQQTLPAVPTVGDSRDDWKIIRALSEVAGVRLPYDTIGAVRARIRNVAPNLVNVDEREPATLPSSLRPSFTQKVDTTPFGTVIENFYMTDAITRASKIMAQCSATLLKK
T1 sequence (A0A1S3U769 25-251 partner): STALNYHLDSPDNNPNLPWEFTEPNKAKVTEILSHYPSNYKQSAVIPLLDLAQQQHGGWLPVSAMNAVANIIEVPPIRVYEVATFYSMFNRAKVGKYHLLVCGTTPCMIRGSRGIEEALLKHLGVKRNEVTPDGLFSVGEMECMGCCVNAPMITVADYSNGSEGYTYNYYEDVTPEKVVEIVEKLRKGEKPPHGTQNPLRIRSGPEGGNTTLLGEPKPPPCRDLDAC

[2] = target: T2, V. radiata SC I + III2 (complex I, quinone-binding site) (Vigna radiata, UniProt A0A1S3U8J5+E9KZL0+E9KZN6); test: NADH-cytochrome c oxidoreductase activity, A550; type: biochemical; conditions: 20 mM HEPES pH 7.4, 50 mM NaCl, 10% glycerol, 100 µM decylubiquinone, 100 µM equine cyt c, 10 µM NADH, 4 μM KCN
T2 construct: gene nad7; native complex I (14 core + 34 accessory subunits) in supercomplex I + III2, from etiolated hypocotyl mitochondria, digitonin-extracted, amphipol A8-35 stabilized, SEC purified; assayed as NADH-cyt c oxidoreductase; nad1 and NDUS2 transcripts RNA-edited
T2 sequence (E9KZN6 entry or part of it): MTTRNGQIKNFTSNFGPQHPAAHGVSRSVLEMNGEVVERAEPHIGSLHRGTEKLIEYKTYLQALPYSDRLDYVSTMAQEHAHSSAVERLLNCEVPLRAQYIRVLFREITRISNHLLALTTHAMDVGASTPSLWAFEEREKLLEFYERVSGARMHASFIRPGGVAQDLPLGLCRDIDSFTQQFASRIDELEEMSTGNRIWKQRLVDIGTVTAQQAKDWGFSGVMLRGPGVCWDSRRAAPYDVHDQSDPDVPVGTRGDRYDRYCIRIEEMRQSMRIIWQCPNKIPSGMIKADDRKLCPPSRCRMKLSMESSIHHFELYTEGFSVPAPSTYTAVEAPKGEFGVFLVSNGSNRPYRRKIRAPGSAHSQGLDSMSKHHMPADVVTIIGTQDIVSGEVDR
T2 sequence (E9KZL0 entry or part of it): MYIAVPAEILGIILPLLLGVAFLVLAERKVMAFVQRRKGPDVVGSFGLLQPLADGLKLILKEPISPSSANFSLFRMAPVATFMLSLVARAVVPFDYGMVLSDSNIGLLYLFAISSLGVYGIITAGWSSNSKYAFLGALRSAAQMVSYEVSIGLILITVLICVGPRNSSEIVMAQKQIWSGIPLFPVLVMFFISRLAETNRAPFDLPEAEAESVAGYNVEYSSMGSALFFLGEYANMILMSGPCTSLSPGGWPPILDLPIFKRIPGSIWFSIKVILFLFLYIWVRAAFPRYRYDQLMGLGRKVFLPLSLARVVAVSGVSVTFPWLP
T2 sequence (A0A1S3U8J5 entry or part of it): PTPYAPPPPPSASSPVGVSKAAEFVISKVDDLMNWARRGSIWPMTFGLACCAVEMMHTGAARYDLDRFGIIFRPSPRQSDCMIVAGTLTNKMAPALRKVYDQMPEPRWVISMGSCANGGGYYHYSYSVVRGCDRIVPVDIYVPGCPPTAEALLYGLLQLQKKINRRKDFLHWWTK

SMILES | NADH-cytochrome c oxidoreductase activity of purified SC I + III2 [1] | inhibition at 20 μM [2]
NC(=O)C1=CN([C@@H]2O[C@H](COP(=O)(O)OP(=O)(O)OC[C@H]3O[C@@H](n4cnc5c(N)ncnc54)[C@H](O)[C@@H]3O)[C@@H](O)[C@H]2O)C=CC1 [NADH] | The final biochemical sample showed the expected NADH-cyt c oxidoreductase activity | –
C/C=C(\C)[C@H](O)[C@H](C)/C=C(C)/C=C/C/C(C)=C/Cc1nc(OC)c(OC)c(O)c1C [piericidin A] | – | inhibited by CI and CIII2 inhibitors piericidin A and antimycin A, respectively
